Entries after “also recorded” stand apart in the source; their conditions may differ. Peptide text beside a SMILES is read from it. * marks the point of attachment. Cbz = O=C(OCc1ccccc1)*; OtBu = CC(C)(C)O*
Test system: NF-κB
Test: Electrophoretic mobility shift assay of TNF-induced NF-κB activation in cell lines
Type: cell-based, human
Settings: for Effect on TNF-induced NF-κB-activity of ozonized substance in phosphate-buffered saline: medium concentration in PBS, 100% ozonation state, 1 hr preincubation, TNF 1 ng/mL 15 min; for Inhibition of TNF-induced NF-κB-activity: preincubation 10 μM, 1 hr, n=3
Method: A) BHY cells were preincubated with serum-free O3-medium (15 min; the ozonation state is indicated in %) before TNF was added (20 ng/mL, 45 min) and electrophoretic mobility shift assay was performed (NF-κB and Sp-1 binding). The asterisk marks a control reaction in which a 100-fold concentration of unlabeled consensus oligonucleotide was added. B) Cells were treated with O3-medium (HGF-1, 45 min; HeLa, 1 hr) followed by stimulation with TNF (HGF-1, 5 ng/mL for 45 min; HeLa, 1 ng/mL for 15 min). NF-κB-activity normalized to Sp-1 is shown (densitometric analysis). NF-κB-activity after TNF stimulation following preincubation with non-ozonized medium was defined as 100% (dashed line) (n=3, mean±SD). C) Periodontal ligament tissue debris separated into equal-sized portions was incubated (1 hr, 37° C.) with serum-free non-ozonized medium (indicated by “-”) or O3-medium (100% ozonation state, indicated by “+”) followed by 2 hr incubation in fresh medium without ozone. The samples were shock frozen, homogenized and nuclear extracts prepared. Left: Electrophoretic mobility shift assays were performed (NF-κB and Sp-1 binding). The asterisk marks a control reaction in which a 100-fold concentration of unlabeled consensus oligonucleotide was added. Right: Densitometrically measured NF-κB-activity was normalized to Sp-1 (n=3, mean±SD). […] A) HeLa cells were incubated with O3-phosphate-buffered saline (1 hr) followed by TNF stimulation (1 ng/mL, 15 min). The ozonation state is indicated in %. Electrophoretic mobility shift assay was performed to determine NF-κB-activity as well as Sp-1 binding. B) Cells were preincubated (1 hr) with non-ozonized or ozonized amino acids (medium concentration) dissolved in phosphate-buffered saline (100% ozonation state) followed by stimulation with TNF (1 ng/mL, 15 min). The activation of NF-κB was determined by electrophoretic mobility shift assay. C) Densitometric analysis of the NF-κB-activity normalized to Sp-1 is shown (n=3, mean±SD). NF-κB-activity of cells preincubated with non-ozonized amino acids in phosphate-buffered saline and stimulated with TNF was defined as 100% (dashed line). D) HeLa cells were preincubated with non-ozonized or ozonized glucose (medium concentration) followed by TNF stimulation. The NF-κB-activity compared to Sp-1 binding was determined by electrophoretic mobility shift assay. […] The proteasome inhibitor PSI was from Calbiochem (Darmstadt, Germany). A potential toxicity of culture conditions was monitored by cell morphology/count, trypan-blue-exclusion and the Luminescent-Cell-Viability-Assay (Promega, Mannheim, Germany). […] Aqueous ozone was applied to the cells in form of ozonized medium without fetal calf serum (O3-medium) or ozonized phosphate-buffered saline (O3-phosphate-buffered saline) without/with 1 g/L amino acids or 2 g/L glucose. These solutions were treated with gaseous ozone (75 μg/mL, 15 min) using an ozone generator (Ozonosan-photonic, Dr. […], Germany). This condition, which applied to water would result in a final ozone concentration of 20 μg/mL (saturation point), was defined as the 100% ozonation state. For dose response experiments, the solutions were accordingly diluted. The ozone gas concentration was monitored by a photometer integrated in the ozone generator and confirmed by another ozone gas detector (GM-6000-NZL, Anseros, Tubingen, Germany). The ozone concentrations of the respective aqueous solutions were monitored photometrically ([…], England). […] The prototypic immunoglobulin κ-chain oligonucleotide was used as a probe and labeled with the Klenow fragment of DNA polymerase I (Roche, Penzberg, Germany) together with [α-^32P]dCTP (PerkinElmer-LifeSciences, Brussels, Belgium). The Sp-1 consensus oligonucleotide (Promega) was labeled with [γ-^32P]ATP (PerkinElmer-LifeSciences) and T4-polynucleotide-kinase (Roche). Samples were run on non-denaturing 4% polyacrylamide gels and analyzed by autoradiography.

Question: Which “Effect on TNF-induced NF-κB-activity of ozonized substance in phosphate-buffered saline” value (from here on “Effect on TNF-induced NF-κB-activity”) does the source give for `N[C@@H](CS)C(=O)O` [cysteine] here?
Answer: blocked the NF-κB signal almost completely; also recorded: most effective

Question: Which “Effect on TNF-induced NF-κB-activity” value does the source give for `N[C@@H](Cc1c[nH]c2ccccc12)C(=O)O` [tryptophan] here?
Answer: blocked the NF-κB signal almost completely; also recorded: most effective

Question: For `CC[C@H](C)[C@H](NC(=O)OCc1ccccc1)C(=O)N[C@@H](CCC(=O)OC(C)(C)C)C(=O)N[C@@H](C)C(=O)N[C@H](C=O)CC(C)C` [PSI, reference compound] (Cbz-IE(OtBu)AL-aldehyde), which “Inhibition of TNF-induced NF-κB-activity” value (BHY cells) is on record?
Answer: 68±7%

Question: What about the “Inhibition of TNF-induced NF-κB-activity” value (HeLa cells) of the same molecule?
Answer: 75±6%

Question: Which “Effect on TNF-induced NF-κB-activity” value does the source give for `NCC(=O)O` [glycine] here?
Answer: did not have any effect

Question: For `CSCC[C@H](N)C(=O)O` [methionine], which “Effect on TNF-induced NF-κB-activity” value is on record?
Answer: clear inhibition

Question: Which “Effect on TNF-induced NF-κB-activity” value does the source give for `C[C@H](N)C(=O)O` [alanine] here?
Answer: slight reduction

From patent publication US7955623B2, “Pharmaceutical preparations for treating inflammatory diseases” (priority 2008, dated 2011)
